Patent publication US6310043A (priority 1999, dated 2001)

What was measured:
Assay type in all cases: binding, E. coli
SLT-1 (Verotoxin I) = SLT-1 (Verotoxin I) (Bacteriophage H30, UniProt P69178); test: biochemical; conditions: for IC50: read-out: IC50
SLT-1 (VT-1) = SLT-1 (VT-1) (Bacteriophage H30, UniProt P69178)
SLT-2 (VT-2) = SLT-2 (VT-2) (Escherichia phage 933W, UniProt P09386)
[1] = solid phase assays, protocol A or B

Sequence of SLT-1 (Verotoxin I) (P69178 whole entry, looked up): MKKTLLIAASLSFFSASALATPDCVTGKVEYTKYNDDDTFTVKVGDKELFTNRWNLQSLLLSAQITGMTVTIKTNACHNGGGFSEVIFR
Sequence of SLT-1 (VT-1) (P69178 whole entry, looked up): as above
Sequence of SLT-2 (VT-2) (P09386 whole entry, looked up): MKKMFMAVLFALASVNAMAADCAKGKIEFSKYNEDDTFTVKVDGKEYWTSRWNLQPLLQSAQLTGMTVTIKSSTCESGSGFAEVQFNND

Structure (SMILES) | activity relative to the Pk trisaccharide alone (SLT-1 (Verotoxin I); ELISA, VT-I) | IC50 (SLT-1 (Verotoxin I)) [nM] | activity relative to the bridged trisaccharide dimer (SLT-1 (Verotoxin I); similar ELISA, FIG. 5) | relative inhibition of SLT-1 binding to P^k ligand (in words) (SLT-1 (Verotoxin I); [1]) | IC50 (SLT-1 (VT-1)) [nM] | IC50 (SLT-2 (VT-2)) [nM] | fold less active when compared to 22 (SLT-1 (Verotoxin I); solid phase assays, protocol A or B, SLT-1)
CO[C@@H]1O[C@H](CO)[C@@H](O[C@@H]2O[C@H](CO)[C@H](O[C@H]3O[C@H](CO)[C@H](O)[C@H](O)[C@H]3O)[C@H](O)[C@H]2OCCOC(=O)NCC(CNC(=O)OCCO[C@H]2[C@H](O[C@H]3[C@H](O)[C@@H](O)[C@H](OC)O[C@@H]3CO)O[C@H](CO)[C@H](O[C@H]3O[C@H](CO)[C@H](O)[C@H](O)[C@H]3O)[C@@H]2O)OC(=O)NCCCCCCCCNc2c(NCCNC(=O)CSCCCOC[C@H]3O[C@@H](OCCCSCC(=O)NCCNc4c(NCCCCCCCCNC(=O)OC(CNC(=O)OCCO[C@H]5[C@H](O[C@H]6[C@H](O)[C@@H](O)[C@H](OC)O[C@@H]6CO)O[C@H](CO)[C@H](O[C@H]6O[C@H](CO)[C@H](O)[C@H](O)[C@H]6O)[C@@H]5O)CNC(=O)OCCO[C@H]5[C@H](O[C@H]6[C@H](O)[C@@H](O)[C@H](OC)O[C@@H]6CO)O[C@H](CO)[C@H](O[C@H]6O[C@H](CO)[C@H](O)[C@H](O)[C@H]6O)[C@@H]5O)c(=O)c4=O)[C@H](OCCCSCC(=O)NCCNc4c(NCCCCCCCCNC(=O)OC(CNC(=O)OCCO[C@H]5[C@H](O[C@H]6[C@H](O)[C@@H](O)[C@H](OC)O[C@@H]6CO)O[C@H](CO)[C@H](O[C@H]6O[C@H](CO)[C@H](O)[C@H](O)[C@H]6O)[C@@H]5O)CNC(=O)OCCO[C@H]5[C@H](O[C@H]6[C@H](O)[C@@H](O)[C@H](OC)O[C@@H]6CO)O[C@H](CO)[C@H](O[C@H]6O[C@H](CO)[C@H](O)[C@H](O)[C@H]6O)[C@@H]5O)c(=O)c4=O)[C@@H](OCCCSCC(=O)NCCNc4c(NCCCCCCCCNC(=O)OC(CNC(=O)OCCO[C@H]5[C@H](O[C@H]6[C@H](O)[C@@H](O)[C@H](OC)O[C@@H]6CO)O[C@H](CO)[C@H](O[C@H]6O[C@H](CO)[C@H](O)[C@H](O)[C@H]6O)[C@@H]5O)CNC(=O)OCCO[C@H]5[C@H](O[C@H]6[C@H](O)[C@@H](O)[C@H](OC)O[C@@H]6CO)O[C@H](CO)[C@H](O[C@H]6O[C@H](CO)[C@H](O)[C@H](O)[C@H]6O)[C@@H]5O)c(=O)c4=O)[C@@H]3OCCCSCC(=O)NCCNc3c(NCCCCCCCCNC(=O)OC(CNC(=O)OCCO[C@H]4[C@H](O[C@H]5[C@H](O)[C@@H](O)[C@H](OC)O[C@@H]5CO)O[C@H](CO)[C@H](O[C@H]5O[C@H](CO)[C@H](O)[C@H](O)[C@H]5O)[C@@H]4O)CNC(=O)OCCO[C@H]4[C@H](O[C@H]5[C@H](O)[C@@H](O)[C@H](OC)O[C@@H]5CO)O[C@H](CO)[C@H](O[C@H]5O[C@H](CO)[C@H](O)[C@H](O)[C@H]5O)[C@@H]4O)c(=O)c3=O)c(=O)c2=O)[C@H](O)[C@H]1O [Compound 22] | about a million times more active than the trisaccharide alone | 0.23 | about 10,000 times | by far the most active inhibitor of SLT-1 binding to P^k ligand | 0.4 | 6 | 
CO[C@@H]1O[C@H](CO)[C@@H](O[C@@H]2O[C@H](CO)[C@H](O[C@H]3O[C@H](CO)[C@H](O)[C@H](O)[C@H]3O)[C@H](O)[C@H]2OCCOC(=O)NCC(CNC(=O)OCCO[C@H]2[C@H](O[C@H]3[C@H](O)[C@@H](O)[C@H](OC)O[C@@H]3CO)O[C@H](CO)[C@H](O[C@H]3O[C@H](CO)[C@H](O)[C@H](O)[C@H]3O)[C@@H]2O)OC(=O)NCCCCCCCCNc2c(NCCNC(=O)CSCCCOC[C@H]3O[C@@H](OC)[C@H](OCCCSCC(=O)NCCNc4c(NCCCCCCCCNC(=O)OC(CNC(=O)OCCO[C@H]5[C@H](O[C@H]6[C@H](O)[C@@H](O)[C@H](OC)O[C@@H]6CO)O[C@H](CO)[C@H](O[C@H]6O[C@H](CO)[C@H](O)[C@H](O)[C@H]6O)[C@@H]5O)CNC(=O)OCCO[C@H]5[C@H](O[C@H]6[C@H](O)[C@@H](O)[C@H](OC)O[C@@H]6CO)O[C@H](CO)[C@H](O[C@H]6O[C@H](CO)[C@H](O)[C@H](O)[C@H]6O)[C@@H]5O)c(=O)c4=O)[C@@H](OCCCSCC(=O)NCCNc4c(NCCCCCCCCNC(=O)OC(CNC(=O)OCCO[C@H]5[C@H](O[C@H]6[C@H](O)[C@@H](O)[C@H](OC)O[C@@H]6CO)O[C@H](CO)[C@H](O[C@H]6O[C@H](CO)[C@H](O)[C@H](O)[C@H]6O)[C@@H]5O)CNC(=O)OCCO[C@H]5[C@H](O[C@H]6[C@H](O)[C@@H](O)[C@H](OC)O[C@@H]6CO)O[C@H](CO)[C@H](O[C@H]6O[C@H](CO)[C@H](O)[C@H](O)[C@H]6O)[C@@H]5O)c(=O)c4=O)[C@@H]3OCCCSCC(=O)NCCNc3c(NCCCCCCCCNC(=O)OC(CNC(=O)OCCO[C@H]4[C@H](O[C@H]5[C@H](O)[C@@H](O)[C@H](OC)O[C@@H]5CO)O[C@H](CO)[C@H](O[C@H]5O[C@H](CO)[C@H](O)[C@H](O)[C@H]5O)[C@@H]4O)CNC(=O)OCCO[C@H]4[C@H](O[C@H]5[C@H](O)[C@@H](O)[C@H](OC)O[C@@H]5CO)O[C@H](CO)[C@H](O[C@H]5O[C@H](CO)[C@H](O)[C@H](O)[C@H]5O)[C@@H]4O)c(=O)c3=O)c(=O)c2=O)[C@H](O)[C@H]1O [Compound 23] |  | 1.6 |  |  | 3.3 | 9 | 
CO[C@@H]1O[C@H](CO)[C@@H](O[C@@H]2O[C@H](CO)[C@H](O[C@H]3O[C@H](CO)[C@H](O)[C@H](O)[C@H]3O)[C@H](O)[C@H]2OCCOC(=O)NCCCCCCCCNc2c(NCCNC(=O)CSCCCOC[C@H]3O[C@@H](OCCCSCC(=O)NCCNc4c(NCCCCCCCCNC(=O)OCCO[C@H]5[C@H](O[C@H]6[C@H](O)[C@@H](O)[C@H](OC)O[C@@H]6CO)O[C@H](CO)[C@H](O[C@H]6O[C@H](CO)[C@H](O)[C@H](O)[C@H]6O)[C@@H]5O)c(=O)c4=O)[C@H](OCCCSCC(=O)NCCNc4c(NCCCCCCCCNC(=O)OCCO[C@H]5[C@H](O[C@H]6[C@H](O)[C@@H](O)[C@H](OC)O[C@@H]6CO)O[C@H](CO)[C@H](O[C@H]6O[C@H](CO)[C@H](O)[C@H](O)[C@H]6O)[C@@H]5O)c(=O)c4=O)[C@@H](OCCCSCC(=O)NCCNc4c(NCCCCCCCCNC(=O)OCCO[C@H]5[C@H](O[C@H]6[C@H](O)[C@@H](O)[C@H](OC)O[C@@H]6CO)O[C@H](CO)[C@H](O[C@H]6O[C@H](CO)[C@H](O)[C@H](O)[C@H]6O)[C@@H]5O)c(=O)c4=O)[C@@H]3OCCCSCC(=O)NCCNc3c(NCCCCCCCCNC(=O)OCCO[C@H]4[C@H](O[C@H]5[C@H](O)[C@@H](O)[C@H](OC)O[C@@H]5CO)O[C@H](CO)[C@H](O[C@H]5O[C@H](CO)[C@H](O)[C@H](O)[C@H]5O)[C@@H]4O)c(=O)c3=O)c(=O)c2=O)[C@H](O)[C@H]1O [Compound 25] |  | 24 |  |  | 1230 |  | 500-1000 fold
CO[C@@H]1O[C@H](CO)[C@@H](O[C@@H]2O[C@H](CO)[C@H](O[C@H]3O[C@H](CO)[C@H](O)[C@H](O)[C@H]3O)[C@H](O)[C@H]2OCCOC(=O)NCCCCCCCCNc2c(NCCNC(=O)CSCCCOC[C@H]3O[C@@H](OC)[C@H](OCCCSCC(=O)NCCNc4c(NCCCCCCCCNC(=O)OCCO[C@H]5[C@H](O[C@H]6[C@H](O)[C@@H](O)[C@H](OC)O[C@@H]6CO)O[C@H](CO)[C@H](O[C@H]6O[C@H](CO)[C@H](O)[C@H](O)[C@H]6O)[C@@H]5O)c(=O)c4=O)[C@@H](OCCCSCC(=O)NCCNc4c(NCCCCCCCCNC(=O)OCCO[C@H]5[C@H](O[C@H]6[C@H](O)[C@@H](O)[C@H](OC)O[C@@H]6CO)O[C@H](CO)[C@H](O[C@H]6O[C@H](CO)[C@H](O)[C@H](O)[C@H]6O)[C@@H]5O)c(=O)c4=O)[C@@H]3OCCCSCC(=O)NCCNc3c(NCCCCCCCCNC(=O)OCCO[C@H]4[C@H](O[C@H]5[C@H](O)[C@@H](O)[C@H](OC)O[C@@H]5CO)O[C@H](CO)[C@H](O[C@H]5O[C@H](CO)[C@H](O)[C@H](O)[C@H]5O)[C@@H]4O)c(=O)c3=O)c(=O)c2=O)[C@H](O)[C@H]1O [Compound 26] |  | 350 |  | the activity drops by several orders of magnitude | 3400 |  | 
CO[C@@H]1O[C@H](CO)[C@@H](O[C@@H]2O[C@H](CO)[C@H](O[C@H]3O[C@H](CO)[C@H](O)[C@H](O)[C@H]3O)[C@H](O)[C@H]2OCCOC(=O)NCCCCCCCCNc2c(NCCNC(=O)CSCCCO[C@@H]3[C@@H](OCCCSCC(=O)NCCNc4c(NCCCCCCCCNC(=O)OCCO[C@H]5[C@H](O[C@H]6[C@H](O)[C@@H](O)[C@H](OC)O[C@@H]6CO)O[C@H](CO)[C@H](O[C@H]6O[C@H](CO)[C@H](O)[C@H](O)[C@H]6O)[C@@H]5O)c(=O)c4=O)[C@H](OC)O[C@H](CO)[C@H]3OCCCSCC(=O)NCCNc3c(NCCCCCCCCNC(=O)OCCO[C@H]4[C@H](O[C@H]5[C@H](O)[C@@H](O)[C@H](OC)O[C@@H]5CO)O[C@H](CO)[C@H](O[C@H]5O[C@H](CO)[C@H](O)[C@H](O)[C@H]5O)[C@@H]4O)c(=O)c3=O)c(=O)c2=O)[C@H](O)[C@H]1O [Compound 27] |  | 3500 |  | the activity drops by several orders of magnitude | 13600 |  | 
